Measured values taken from the NIST ThermoML archive (doi:10.1016/j.jct.2011.02.018).

Assay: xn = mol fraction of the nth substance listed
Settings: 101 kPa, Liquid; for viscosity: Concentric cylinders viscometry; for mass density: Vibrating tube method

COC(C)(C)C [2-methoxy-2-methylpropane] + CCO
Settings	mass density, 293.15 K [kg/m3]	mass density, 298.15 K [kg/m3]	mass density, 303.15 K [kg/m3]	mass density, 308.15 K [kg/m3]	viscosity, 293.15 K [mPa·s]	viscosity, 298.15 K [mPa·s]	viscosity, 303.15 K [mPa·s]	viscosity, 308.15 K [mPa·s]
x1 = 0.0097	789.03	784.78	780.44	776.08	1.174	1.067	0.9713	0.884
x1 = 0.0198	788.28	783.99	779.64	775.26	1.146	1.043	0.9506	0.8659
x1 = 0.0301	787.54	783.23	778.87	774.47	1.118	1.027	0.9348	0.8484
x1 = 0.0402	786.85	782.54	778.16	773.74	1.092	0.9956	0.9088	0.8298
x1 = 0.0502	786.37	782.01	777.63	773.2	1.073	0.9782	0.893	0.8165
x1 = 0.0583	785.66	781.32	776.91	772.46	1.049	0.9582	0.8745	0.7986
x1 = 0.07	784.87	780.51	776.08	771.61	1.023	0.9337	0.854	0.7813
x1 = 0.0801	784.2	779.82	775.37	770.89	1	0.9146	0.8364	0.7634
x1 = 0.0861	783.96	779.52	775.09	770.6	0.9912	0.9061	0.8291	0.7578
x1 = 0.1009	782.99	778.56	774.11	769.6	0.9622	0.8805	0.806	0.7369
x1 = 0.154	779.59	775.08	770.56	765.97	0.8624	0.792	0.7283	0.6689
x1 = 0.2006	776.77	772.21	767.62	762.96	0.7889	0.7263	0.6694	0.6147
x1 = 0.2471	774.06	769.46	764.79	760.08	0.7261	0.6707	0.6185	0.5661
x1 = 0.2975	771.22	766.56	761.83	757.06	0.6675	0.6182	0.5731	0.5259
x1 = 0.3487	768.46	763.75	758.96	754.12	0.6166	0.5722	0.5309	0.4855
x1 = 0.3976	765.94	761.16	756.32	751.43	0.5761	0.5357	0.4954	0.4552
x1 = 0.4532	763.17	758.36	753.45	748.5	0.5354	0.4987	0.4638	0.4257
x1 = 0.5007	760.96	756.08	751.15	746.15	0.5062	0.4708	0.4353	0.3994
x1 = 0.5505	758.76	753.83	748.85	743.8	0.4798	0.4482	0.4155	0.379
x1 = 0.5998	756.62	751.67	746.63	741.53	0.4564	0.426	0.3967	0.363
x1 = 0.6484	754.48	749.51	744.43	739.29	0.4361	0.4083	0.3808	0.3487
x1 = 0.6995	752.35	747.32	742.19	737	0.4156	0.39	0.3632	0.3313
x1 = 0.749	750.35	745.3	740.14	734.91	0.3998	0.3751	0.3459	0.3273
x1 = 0.7995	748.36	743.27	738.06	732.8	0.3844	0.3616	0.3381	0.3084
x1 = 0.8496	746.44	741.31	736.08	730.78	0.3715	0.3488	0.3271	0.3025
x1 = 0.9009	744.51	739.34	734.07	728.75	0.3589	0.3384	0.3159	0.2963
x1 = 0.9093	744.2	739.04	733.77	728.45	0.3573	0.3382	0.3136	0.2948
x1 = 0.9166	743.9	738.72	733.47	728.14	0.3534	0.3338	0.3143	0.2965
x1 = 0.9299	743.35	738.18	732.9	727.57	0.352	0.3326	0.3136	0.2908
x1 = 0.9398	742.96	737.79	732.51	727.17	0.35	0.3294	0.3107	0.2884
x1 = 0.9501	742.54	737.38	732.09	726.76	0.348	0.3264	0.3068	0.2842
x1 = 0.9597	742.15	736.97	731.71	726.36	0.3458	0.3256	0.3066	0.2829
x1 = 0.968	741.84	736.66	731.37	726.03	0.3444	0.3247	0.3062	0.282
x1 = 0.9802	741.35	736.15	730.87	725.52	0.3418	0.3226	0.304	0.2809
x1 = 0.9868	741.1	735.92	730.61	725.26	0.3421	0.3209	0.3005	0.2794
